From patent US8957022B2, “Multimeric tie 2 agonists and uses thereof in stimulating angiogenesis” (Sunnybrook Health Sciences Centre, priority 2006, dated 2015)
Where no end group is shown, it is not given here. Side-chain parts run from the residue outwards. The star is where a group is joined. Biotin = O=C1N[C@H]2[C@H](CS[C@H]2CCCCC(=O)*)N1; PEO = not defined here

Experiments:
HUVEC [1] = test: Serum withdrawal-induced cell death, Cell Death ELISA; type: cell-based, human; details: F12 plus 0.1% FBS, 16 hours; clustered Vasculotide at 500 pM (p=0.002) vs non-treated cells
Protocol: Based on the fact that clustered Vasculotide strongly activates the anti apoptotic protein AKT (see Example 3), the ability of Vasculotide to protect ECs from serum withdrawal-induced death was examined. To do so, HUVEC were maintained in F12 media plus 0.1% FBS for 16 hours in the presence of various concentrations of unclustered or clustered Vasculotide, followed by analysis of cell apoptosis via cell death ELISA. Analysis of apoptosis was performed using Cell Death ELISA Plus (Roche) according to manufacturers' specifications. The results are shown in FIG. 2A, in which values were normalized to basal levels of cell death for HUVECs maintained in full 10% FBS, growth factor supplemented F12 media. The results shown represent the mean of three replicates plus or minus 1 SD. Student's T-test was used for statistical analysis with P value indicated.

Tie 2 = Tie 2 (Homo sapiens, UniProt Q02763); test: Tie 2 activation (pY992 Tie 2 immunoblot) in HUVEC; type: cell-based; set-up: downstream signalling pathways in human umbilical vein endothelial cells (HUVEC) (Cambrex, N.J.); host or cells: HUVEC, passage 3-9; details: avidin alone and unclustered Vasculotide
Protocol: Having established that Vasculotide was able to bind Tie 2 (see Example 2), the ability of Vasculotide, when clustered with avidin in a 4:1 ratio (Vasculotide:avidin), to activate the Tie 2 receptor was tested by examining several well established downstream signalling pathways in human umbilical vein endothelial cells (HUVEC) (Cambrex, N.J.). Such signalling pathways are described in, for example, Kim, I. et al. (2000) Circ. Res. 9:952-959; Fujikawa, K. et al. (1999) Exp. Cell. Res. 2:663-672; Babaei, S. et al. (2003) Am. J. Pathol. 6:1927-1936.
HUVEC were grown on 6-well or 10 cm plates (Nunc) coated with gelatin (Sigma). HUVEC were cultured in F12 growth medium containing 10% fetal bovine serum (FBS), 0.1 mg/ml heparin sulphate, 1× penicillin, 1× streptomycin, 1× glutamine, VEGF 10 ng/ml, EGF 10 ng/ml, bFGF 5 ng/ml. All HUVEC were used between passage 3-9.
(§1) HUVEC were stimulated with one of either Ang 1 (R&D Systems), Vasculotide, avidin or clustered Vasculotide (preclustered with a 4:1 molar ratio of peptide:avidin in PBS for 2 hours at 4° C.) at various doses. Stimulations with Vasculotide were performed in full serum containing growth media for 15 minutes unless otherwise indicated. Cell lysate preparations and immunoblot analysis were performed by standard methods. Antibodies used for immunoblotting (in this and/or subsequent Examples) were monoclonal anti Tie 2 (Pharminogen), polyclonal anti pY992 Tie 2, (Cell Signaling Technology), polyclonal anti MAPK (Cell Signaling Technology), monoclonal anti phospho MAPK (Cell Signaling Technology), polyclonal anti AKT (Cell Signaling Technology), polyclonal anti pS473 AKT (Cell Signaling Technology), monoclonal anti pS1177 eNOS (BD Biosciences), polyclonal anti pY397 FAK (Biosource), polyclonal anti FAK (Santa Cruz), polyclonal anti smooth muscle actin-Cy3 direct conjugate (Dako), polyclonal anti PECAM (Pharminogen) and polyclonal anti smooth muscle actin (Sigma).
To examine Tie 2 activation kinetics, HUVEC were stimulated with native Ang 1 or clustered Vasculotide for various times. Stimulation was performed in 10% FBS. […] Overall, activation of the receptor by either Ang 1 or clustered Vasculotide followed a very similar time course with phosphorylation returning to almost basal levels sometime after 2 hours.

CD1 mice = test: Matrigel plug angiogenesis assay; type: in vivo, mouse
Protocol: To further examine the in vivo angiogenic potential of Vasculotide, a Matrigel assay was performed. More specifically, growth factor reduced Matrigel (BD Biosciences) was impregnated with either clustered Vasculotide or one of several different control factors. These Matrigel samples were injected subcutaneously into the flank region of 3 month old CD1 mice. 14 days post implantation and immediately prior to sacrifice, FITC lectin (100 μg) was injected IV and allowed to circulate for 10 minutes, to facilitate vessel identification and quantification. Plugs were surgically resected and fixed in 4% paraformaldehyde (PFA) for 16 h. Images of vascular topology were taken using a Zeiss dissecting microscope at 4× magnification. Upon fixing, all plugs were whole mount stained with anti-Sma1-Cy3. Plugs were analyzed on a Zeiss Axiovert 100 M confocal microscope (Carl Zeiss) for three dimensional image reconstruction and photos were processed using LSM Image Browser and Adobe Photoshop 7.0. Morphometric quantification of vessel characteristics was performed by skeletonizing confocal image projections with Image Processing Tool Kit 5.0 (IPTK 5.0). Student's t test was used to test the statistical significance with a 95% confidence interval. All experiments were performed with three replicates each, with at least 5 random image stacks.
To more fully address and assign quantitative vessel parameters to the different treatment groups, the plugs were fixed and interrogated with laser confocal microscopy analysis combined with post processing image analysis (Image Processing Tool Kit 5.0, Reindeer Graphics, N.C.). Vessel parameters, including length, number and branch points (nodes) were quantified on at least six representative fields. Statistical analysis was performed by way of unpaired Student's t test. Bar graphs of the number of vessels, vessel length and number of nodes, for each treatment group, are shown in FIGS. 3A, 3B and 3C, respectively. It is noted that poor perfusion of FITC-lecithin into mice harboring 20 nM clustered Vasculotide plus VEGF plugs prevented statistical analysis, therefore bars are the mean of two separate fields. All other bars shown represent mean+/−SD.
Ang 1 has been reported to potentiate the recruitment of myogenic support cells (Suri, C. et al. (1996) Cell 87:1171-1180) and inhibit VEGF induced vascular permeability through mechanisms that are not well understood (Thurston, G. et al. (2000) Nat. Med. 6:460-463). To determine if Vasculotide, like Ang 1, was capable of initiating pericyte recruitment, whole mount immunofluorescence was performed against smooth muscle actin 1 (Sma1). […] Sma 1 staining was tightly associated with the exterior of the vessels and was enriched on larger vessels.

[2] = system: B6.Cg-m(+/+)Lepr(db)/J (db/db) mice; test: Excisional wound healing in diabetic mice, topical application; type: in vivo, mouse; details: bFGF 10 μg/ml
Protocol: Pathogen free, nine week old B6.Cg-m(+/+)Lepr(db)/J (db/db) mice were purchased from Jackson Laboratories. Circular, full excisional, 6 mm diameter wounds were made, according to animal committee approval guidelines, equal distant apart on the dorsal side of the mice. Various factors were suspended in sterile Intrasite Topical Gel (Smith and Nephew) at noted concentrations. Treatments were as follows: Vehicle n=8, bFGF (10 μg/ml) n=8, clustered Vasculotide (20 nM) n=4, clustered Vasculotide (5 nM) n=4. Preparations were applied at day 0 (time of wounding), day 2, 4 and 6. Standardized images were taken on days 0, 2, 4, 6 and 7 using a Canon EOS digital Rebel camera. Image J (NIH) was used to manually outline wound perimeter from which total pixel counts (wound area) were determined. Mice were sacrificed on day 7 and full wound beds including margin were excised and fixed in 4% PFA. Wounds were cut in half at the widest point and each half was prepared for either paraffin or frozen sections. Wax sections were processed according to standard protocols for H&E and Masson's Trichrome stain. Images were captured using a Leica DMLS compound light microscope and Pixel Link camera at 5× and 20×. Student's t test was used to test the statistical significance.
For histological scoring, sections were fixed in 4% paraformaldehyde, embedded in paraffin and sectioned and stained with H & E and Masson's trichrome. Sections were evaluated by a pathologist for re-epithelialization, granulation tissue formation, and inflammation, with criteria used for scoring skin as follows:
• 0—none • 1—minimal (0-20% regrowth from wound margins) • 2—mild (25% to 50% regrowth) • 3—moderate (>50% regrowth, up to 100% but not >2 cells thick along length) • 4—complete regrowth (epithelium>1 cell thick along length, keratinized) Granulation Tissue (GT) and Neovascularization: • 0—none • 1—minimal (1-3 small, isolated islands of GT at margins of defect) • 2—mild (multifocal, patchy islands of GT underlying tissue defect, <10 new blood vessels) • 3—moderate (locally extensive bands of GT underlying length of defect) • 4—marked (dense bands of GT at margins and underlying length of defect with collagen fibrils and numerous blood vessels) Inflammation (within Defect): • 0—none • 1—minimal (a few scattered neutrophils at margins of defect) • 2—mild (multifocal aggregates of up to 5 neutrophils underlying defect) • 3—moderate (multifocal aggregates of up to 10 neutrophils and occasional macrophages, minimal to mild edema) • 4—marked (locally extensive, dense neutrophilic infiltrates with lesser numbers of macrophages, mild-moderate edema)

HUVEC [3] = test: Modified Boyden chamber migration assay; type: cell-based, human; details: as in Example 4
Protocol: To test if Vasculotide, like Ang 1, was capable of promoting these processes, the effect of Vasculotide on EC migration was tested using a modified Boyden chamber assay. HUVEC were seeded at a density of 8.4×10^4 cells in 500 μl of F12 growth media plus 0.1% FBS in the upper chamber of an 8 μm pore size modified Boyden chamber (Falcon). 500 μl of F12 media plus 0.1% FBS plus various growth factors (Ang 1 (R& D Systems), unclustered or clustered Vasculotide, VEGF (R&D Systems) or clustered Vasculotide in combination with VEGF) or controls were placed in the bottom chamber. Cells were allowed to migrate for 4 hours in a 37° C., 5% CO2 incubator. Nonmigrating cells were scraped off, and filters were fixed in 100% methanol for 5 minutes, stained with Harris' Hematoxylin (BDH) for 10 minutes and washed twice with tap water for 3 minutes each. Filters were then mounted using Aquapolymount mounting medium. Cells that had migrated more than 50% of the way through the pore were scored as positive for migration.
Student's t test was used to test the statistical significance with a 95% confidence interval. Stimulations were performed in triplicate and migrating cells in 6 microscopic fields per replicate were counted.

MMP2 = test: Gelatin zymography of HUVEC conditioned media; type: cell-based, human; details: as in Example 4
Protocol: In vivo, ECs can not migrate until they secrete enzymes necessary to break down components of the extra cellular matrix. Gelatin zymography was employed to determine if clustered Vasculotide promoted secretion of MMP2. To perform the zymography, HUVEC were cultured in F12 media plus 0.1% FBS and stimulated for 16 h with VEGF, unclustered Vasculotide or clustered Vasculotide at various concentrations. Conditioned media was centrifuged to remove cellular debris and prepared for gel electrophoresis using non-reducing conditions. Gels were washed twice for 30 minutes in 2.5% Triton X-100 to remove sodium dodecyl sulfate and were then incubated in substrate buffer (50 mmol/L Tris-HCl, pH 8.8, 5 mmol/L CaCl2) for 16 hours at 37° C. Gels were then stained with 0.5% Coomassie blue in 30% methanol/10% acetic acid for 2 hours at room temperature and destained in 50% methanol/10% acetic acid. The presence of metalloproteinases was indicated by unstained proteolytic zones in the gel.

[4] = system: focal adhesion kinase (FAK); test: FAK activation in HUVEC (pY397 FAK immunoblot); type: cell-based, human; details: time course
Protocol: as §1
To examine Tie 2 activation kinetics, HUVEC were stimulated with native Ang 1 or clustered Vasculotide for various times. Stimulation was performed in 10% FBS. […]

Chain of Tie 2 (Q02763 23-1124): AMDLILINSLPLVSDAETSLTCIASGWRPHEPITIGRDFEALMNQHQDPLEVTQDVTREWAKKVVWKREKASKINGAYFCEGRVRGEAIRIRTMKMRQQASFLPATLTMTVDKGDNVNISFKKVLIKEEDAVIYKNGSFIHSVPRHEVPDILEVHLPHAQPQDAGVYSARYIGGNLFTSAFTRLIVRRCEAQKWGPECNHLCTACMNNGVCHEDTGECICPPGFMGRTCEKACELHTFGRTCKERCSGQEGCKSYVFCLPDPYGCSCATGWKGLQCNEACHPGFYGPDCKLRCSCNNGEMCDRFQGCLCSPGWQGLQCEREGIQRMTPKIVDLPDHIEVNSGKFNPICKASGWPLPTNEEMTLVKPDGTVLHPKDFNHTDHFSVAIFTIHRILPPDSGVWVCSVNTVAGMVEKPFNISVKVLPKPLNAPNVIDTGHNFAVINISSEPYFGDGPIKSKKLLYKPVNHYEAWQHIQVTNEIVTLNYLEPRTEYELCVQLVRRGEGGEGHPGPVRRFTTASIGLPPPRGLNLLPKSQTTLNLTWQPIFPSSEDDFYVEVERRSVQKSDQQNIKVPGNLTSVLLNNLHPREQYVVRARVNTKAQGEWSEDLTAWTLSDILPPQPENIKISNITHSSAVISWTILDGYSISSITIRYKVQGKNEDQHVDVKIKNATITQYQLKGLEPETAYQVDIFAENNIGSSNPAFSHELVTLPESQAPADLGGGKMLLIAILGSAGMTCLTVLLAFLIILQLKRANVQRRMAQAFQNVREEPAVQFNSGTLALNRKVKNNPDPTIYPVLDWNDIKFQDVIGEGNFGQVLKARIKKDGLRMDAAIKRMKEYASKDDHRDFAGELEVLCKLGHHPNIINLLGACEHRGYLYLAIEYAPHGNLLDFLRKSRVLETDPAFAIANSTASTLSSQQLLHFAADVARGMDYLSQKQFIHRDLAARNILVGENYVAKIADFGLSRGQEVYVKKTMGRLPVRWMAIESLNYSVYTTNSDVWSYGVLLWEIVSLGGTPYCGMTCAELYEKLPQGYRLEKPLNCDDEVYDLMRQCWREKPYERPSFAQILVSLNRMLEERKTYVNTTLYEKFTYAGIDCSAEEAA

In the case of “avidin: tetramer agent with four binding sites for biotin, tested alone as control [reference compound]”, the “Apoptosis / survival after serum withdrawal” value (HUVEC [1]) is reported as “no effect on survival” and the “Tie 2 phosphorylation without preclustering” value (Tie 2) is reported as “only when preclustered with avidin was Vasculotide able to stimulate Tie 2 phosphorylation”.

For VEGF [reference compound], the “Nature of vessels (arborization, tortuosity)” value (CD1 mice; 14 days post implantation) was “highly tortuous”, the “Vessel growth in plugs (confocal analysis)” value (CD1 mice; 14 days post implantation, FITC lectin) was “robust induction of angiogenesis” and the “Angiogenic response in the membranous capsule surrounding the plugs” value (CD1 mice; 14 days post implantation, subcutaneous) was “distinct and robust angiogenic response”. For the same molecule, the “Smooth muscle actin 1 (Sma1) staining, pericyte recruitment” value (CD1 mice; whole mount immunofluorescence) was “relative absence of Sma1 positive staining cells”.

With “bFGF: growth factor used as comparator at 10 μg/ml in the wound gel [reference compound]” the “Wound closure by day 7” value [2] was “statistically indistinguishable from clustered Vasculotide at 20 nM or 5 nM” and the “Histological differences between vehicle and bFGF” value ([2]; p=0.0486) was “existed only at the level of inflammation”.

For “tetrameric GA3-containing compound: GA3 peptide (SEQ ID NO: 4) conjugated to PEO-maleimide-biotin, clustered with avidin in a 4:1 ratio (C([maleimide-PEO-Biotin])WTIIQRREDGSVDFQRTWKEYK; reading uncertain; also: avidin tetramer, 4 peptides per avidin, printed as Cys-Trp-Thr-Ile-Ile-Gln-Arg-Arg-Glu-Asp-Gly-Ser-Val-Asp-Phe-Gln-Arg-Thr-Trp-Lys-Glu-Tyr-Lys)”, the “Endothelial cell migration (GA3 tetramer)” value (HUVEC [3]) was “effective in promoting endothelial cell migration” and the “MMP2 release (GA3 tetramer)” value (MMP2) was “effective in promoting MMP2 release”.

B1: Ang 1: angiopoietin 1, protein growth factor ligand for Tie 2 (R&D Systems) (protein, UniProt Q15389 16-498, looked up)
Angiopoietin-1: HIGCSNQRRSPENSGRRYNRIQHGQCAYTFILPEHDGNCRESTTDQYNTNALQRDAPHVEPDFSSQKLQHLEHVMENYTQWLQKLENYIVENMKSEMAQIQQNAVQNHTATMLEIGTSLLSQTAEQTRKLTDVETQVLNQTSRLEIQLLENSLSTYKLEKQLLQQTNEILKIHEKNSLLEHKILEMEGKHKEELDTLKEEKENLQGLVTRQTYIIQELEKQLNRATTNNSVLQKQQLELMDTVHNLVNLCTKEGVLLKGGKREEEKPFRDCADVYQAGFNKSGIYTIYINNMPEPKKVFCNMDVNGGGWTVIQHREDGSLDFQRGWKEYKMGFGNPSGEYWLGNEFIFAITSQRQYMLRIELMDWEGNRAYSQYDRFHIGNEKQNYRLYLKGHTGTAGKQSSLILHGADFSTKDADNDNCMCKCALMLTGGWWFDACGPSNLNGMFYTAGQNHGKLNGIKWHYFKGPSYSLRSTTMMIRPLDF
B1 was tested, and the “Activation of FAK” value [4] was “time dependently activated FAK”.
